# In paper PMC11077371, “Ciliogenesis-associated Kinase 1 Promotes Breast Cancer Cell Proliferation and Chemoresistance via Phosphorylating ERK1” (International Journal of Biological Sciences, 2024):
# Biological target: T1, CILK1 (Homo sapiens, UniProt Q9UPZ9)
# T1 construct: purchased protein (Abcam ab101774)
# T1 sequence (Q9UPZ9 1-632): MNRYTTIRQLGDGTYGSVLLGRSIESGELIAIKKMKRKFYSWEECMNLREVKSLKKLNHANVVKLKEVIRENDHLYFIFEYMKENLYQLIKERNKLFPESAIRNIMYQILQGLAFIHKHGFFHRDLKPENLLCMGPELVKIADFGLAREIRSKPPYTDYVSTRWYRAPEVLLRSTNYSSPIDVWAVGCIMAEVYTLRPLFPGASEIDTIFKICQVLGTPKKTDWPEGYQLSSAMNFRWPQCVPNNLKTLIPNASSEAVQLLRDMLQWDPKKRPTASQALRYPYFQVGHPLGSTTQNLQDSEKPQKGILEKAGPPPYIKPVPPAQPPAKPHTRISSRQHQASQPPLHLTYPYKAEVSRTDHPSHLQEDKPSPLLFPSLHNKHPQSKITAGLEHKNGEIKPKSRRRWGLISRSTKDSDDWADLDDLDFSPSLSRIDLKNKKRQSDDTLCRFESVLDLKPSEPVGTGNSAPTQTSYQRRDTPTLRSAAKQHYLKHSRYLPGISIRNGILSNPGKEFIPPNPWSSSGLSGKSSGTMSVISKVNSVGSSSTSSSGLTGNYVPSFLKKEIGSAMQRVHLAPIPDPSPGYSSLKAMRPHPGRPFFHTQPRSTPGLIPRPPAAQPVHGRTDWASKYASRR
# Experiment: surface plasmon resonance, […] Langmuir fit
# Type: binding
# Conditions: 3D Dextran chip; 1.5625-25 μM analyte
smiles,measurement,value
CCc1ccc2nc(Nc3nc(C)c(Cc4ccc(C)cc4)c(=O)[nH]3)nc(C)c2c1 [CILK1-C30],Kd,108 nM
